Where a name gives a salt, the structure may show the parent alone.
Key:
[1] = system: A20 diffuse large B cell lymphoma; assay: Anti-tumor efficacy in A20 DLBCL syngeneic mouse model; assay type: in vivo; conditions: monotherapy; Cpd A 14 mg/kg i.v., Cpd B 200 μg/mouse i.v.; female BALB/c mice; vs vehicle control group
Experimental: (§1) A20 diffuse large B cell lymphoma and CT26 colorectal cancer cells were maintained in vitro in cell cultural medium supplemented with serum (according to the instructions for each corresponding cell lines) at 37° C. in an atmosphere of 5% CO2 in air. The tumor cells were routinely subcultured twice weekly. The cells in an exponential growth phase were harvested and counted for tumor inoculation. To investigate anti-tumor efficacy and mechanisms of action in vivo, each mouse was inoculated subcutaneously at the right lower flank region with tumor cells (1×10^5−2×10^6 depending on the cell lines) in 0.1 ml of PBS with or without metrigel for tumor development. Before commencement of treatment, all animals were weighed and the tumor volumes were measured using a caliper. […]
(§2) Tumor volumes were measured 2-3 times weekly in two dimensions using a caliper, and the volume was expressed in mm^3 using the formula: V=0.5 a×b2 where a and b are the long and short diameters of the tumor, respectively. Tumor weight was measured at study termination. […]
The anti-tumor activity of Compound A and Compound B was assessed firstly in an immune-checkpoint blocker resistant DLBCL syngeneic A20 xenograft mouse model as single agent and in combination. […] Body weights and tumor size were measured three times per week. […] The tolerability was assessed by body weight change. […]

[2] = system: CT26 (KRAS^mut, non-MSI^high) colorectal cancer; assay: Anti-tumor efficacy in CT26 colorectal cancer syngeneic mouse model; assay type: in vivo; conditions: monotherapy
Experimental: as §1, §2
Therefore, the anti-tumor activity of Compound A and Compound B was assessed in the mouse syngeneic CT26 (KRAS^mut, non-MSI^high) colorectal cancer xenograft model as single agent and in combination. […]

[3] = system: regulatory T cells (Treg); assay: Analysis of regulatory T cells (Treg) and CD8+ T cells in tumor, spleen and thymus of the A20 model; assay type: in vivo, mouse
Experimental: Sampling procedures: organ and tumor tissues were quickly removed and weighted 3 h post the final dose for FACS, IHC (FFPE), and RNA/pretein expression analysis.
The anti-tumor activity of Compound A and Compound B was assessed firstly in an immune-checkpoint blocker resistant DLBCL syngeneic A20 xenograft mouse model as single agent and in combination. A20 cells were inoculated subcutaneously at the right flank of female BALB/c mice for tumor development. The treatment was started when the average tumor size reached about 116 mm^3. Mice were allocated randomly into experimental groups according to their tumor sizes and being treated from day 12 after tumor cell inoculation. Cpd A was dosed at 14 mg/kg and Cpd B at 200 μg/mouse intravenously with the schedule indicated in FIG. 1 A. Treatment groups were: control antibody (ctrl Ab), vehicle control (vehicle), compound A monotherapy (Cpd. A), Cpd. B monotherapy, 3 combination groups with different dosing schedules. Body weights and tumor size were measured three times per week. Tumor growth curve (FIG. 1B), tumor weight at the end of treatment (FIG. 1C) and tumor response (FIG. 1D) were used as anti-tumor activity endpoints. The tolerability was assessed by body weight change. […]

SMILES: COc1c(OCCCN2CCOCC2)ccc2c1N=C(NC(=O)c1cnc(N)nc1)N1CCN=C21 [Cpd A, 2-amino-N-[7-methoxy-8-(3-morpholin-4-ylpropoxy)-2,3-dihydroimidazo[1,2-c]quinazolin-5-yl]pyrimidine-5-carboxamide dihydrochloride]
- relative tumor growth inhibition (TGI %) [1]: 78%
- TGI [2]: 71%
- effect on Treg in thymus and spleen ([3]; A20 model, thymus and spleen): minimal or no effects
- effect on Treg population in tumors ([3]; A20 tumors, Treg among CD4+ T cells): specifically reduce the Treg population in tumors

— patent publication US11684672B2, “Combinations of copanlisib with anti-PD-1 antibody” (BAYER PHARMA AKTIENGESELLSCHAFT, priority 2017, dated 2023)
